Data: patent publication US7122314B2, “Methods for detecting vancomycin-resistant microorganisms and compositions therefor” (ID Biomedical Corporation, priority 2002, dated 2006)

Tests used:
[1] = system: vanA and vanB genes; assay: Non-isotopic CPT-EIA VRE screen of enterococcal isolates; conditions: threshold 0.14 OD650; 27 isolates, five operators
Excerpt: This following example describes a rapid single probe non-isotopic CPT assay for screening dual VRE genes (vanA and vanB) from Enterococcal isolates. The non-isotopic VRE assay, which combines CPT with an enzyme immunoassay (CPT-EIA), is schematically illustrated in FIG. 2. Because of the lack of homology between the vanA and vanB genes, it was not possible to find a common sequence that was suitable for a perfectly complementary CPT chimeric probe. It was necessary to design a probe that had two mismatches to vanA in the 5′ DNA arm and two mismatches to vanB in the 3′ DNA arm. In spite of the mismatches, the probe worked well to discriminate vanA and vanB from vanC and VSE isolates.
The dual detection single chimeric probe specific for detecting vanA and vanB genes are synthesized, fluoresceinated and biotinylated as described in Example 1. The purified thermostable RNase H is prepared as described in Example 3.
The sources of Enterococcal isolates and growth conditions are as described in Example 2. Lysis
The cells are lysed by placing a 1-μL loopful of culture growth in 50 μL of Lysis Reagent. […]
After cycling, 3 drops (˜100 μL) of Cycle Stop Reagent containing sheep polyclonal antifluorescein-horseradish peroxidase (HRP) conjugate and 0.16% SDS in Peroxidase Stabilizing Buffer (DAKO, Mississauga, ON) is added to the cycling reaction. […] The plate is read with a Vmax plate reader at OD650. […]

[2] = system: VanA phenotype enterococci; conditions: inducible resistance; cited from earlier work

Molecule	sensitivity [1] [%]	specificity [1] [%]	MIC [2] [µg/mL]
5′-CAT GAT GTG TCG GTa aaa TCT GCA ATA GAG A-3′ (DNA CATGATGTGTCGGTAAAATCTGCAATAGAGA; scissile link, further chemistry not given here) [vanB110-m3]	98.7	100	
CN[C@H](CC(C)C)C(=O)N[C@H]1C(=O)N[C@@H](CC(N)=O)C(=O)N[C@H]2C(=O)N[C@H]3C(=O)N[C@H](C(=O)N[C@H](C(=O)O)c4cc(O)cc(O)c4-c4cc3ccc4O)[C@H](O)c3ccc(c(Cl)c3)Oc3cc2cc(c3O[C@@H]2O[C@H](CO)[C@@H](O)[C@H](O)[C@H]2O[C@H]2C[C@](C)(N)[C@H](O)[C@H](C)O2)Oc2ccc(cc2Cl)[C@H]1O [vancomycin]			≥ 64
teicoplanin			≥ 16
